Measured values taken from publication PMC6664396, “A golden opportunity: benzofuranone modifications of aurones and their influence on optical properties, toxicity, and potential as dyes” (Beilstein Journal of Organic Chemistry, 2019).

Experiments:
[1] = test system: Hep G2 human liver cancer cells; assay: Hep G2 cytotoxicity assay (MTT); type: cell-based; set-up: Average % Inhibition: tested at 200 µM; settings: for Hep G2 % inhibition: 200 μM concentration of compound, 3 days incubation, MTT readout; for % Inhibition: Hep G2 MTT absorbance relative to vehicle; for Average % Inhibition: average of Triplicates 1-3 (T1, T2, T3), Hep G2 MTT
Description: An initial screening of toxicity was conducted at a fairly high concentration (200 μM) on the present series of compounds using a standard HEP G2 inhibition assay (Table 1). Compared to a currently used yellow dye (tartrazine), the aurones are similar to more toxic. Within the aurone series, though, an interesting pair of trends can be observed. First, all hydroxylated aurones are comparatively more toxic, displaying >50% inhibition at 200 μM. Methyl groups are similarly mostly more toxic. For the halogens, however, location is fairly important, with the 6 or 7 position being much less toxic (similar to tartrazine) and dramatically better than the unsubstituted base compound 1, with the unexpected exception of 7-bromo compound 10. Whether this trend is general or not for aurone compounds is an interesting question for future study.
Hep G2 cytotoxicity assay
Hep G2 human liver cancer cells were cultured in phenol red Dulbecco’s
Modified Eagle Medium (DMEM) with 10% fetal bovine serum (FBS) and 1% Pen-strep (PSG) under 37°C and 5% CO2 atmospheric conditions. The cells were washed with phosphate buffered saline (PBS) and diluted with phenol red free DMEM to a concentration between 200,000 to 250,000 cells/mL. The cells we re distributed in a 96-well plate with each well containing 100 µL of the cell solution and were allowed to settle for 2 hours in the incubator. The cells were then treated with 200 µM of the aurones in DMSO and the known dyes in 10:90 (v:v) DMSO/ultrapure water in triplicates and were left in the incubator for 3 days. The vehicles were used as the negative controls (DMSO for the aurones and 10:90 DMSO:ultrapure water for the known dyes). 20 µL of 5 mg/mL MTT (3-(4,5-dimethylthiazol-2-yl)-2,5-diphenyltetrazolium bromide) was added to each well containing treated cells after the 3-day incubation period and was allowed to settle in the incubator for 3.5 more hours. Finally, the media was removed from the wells and replaced by 100 µL of DMSO to lyse the cells and dissolve the formazan crystals that were formed. The absorbance was then recorded on the SpectraMax M5 Multi -Mode Microplate Reader. The procedure was repeated two more times using different batches of cultured Hep G2 cells on different days. […]

[2] = UV–vis spectra in acetonitrile (λmax, extinction coefficient); type: physicochemical; set-up: λmax: unit: nm; settings: for dissolution for ε determination: in CH3CN, printed in the ε column
Description: With the desired compounds in hand, their UV–visible spectra were recorded at concentrations between 29 and 44 μM in acetonitrile (Figure 3 and Table 1). While not all substituents were prepared at every position, some interesting trends were observed. Substitution at the 4-position whether halogen or hydroxy afforded essentially identical lambda maxima (390 nm), slighly red-shifted compared to the unsubstituted compound 1. On the other hand, hydroxy groups at the 6-position result in a significant blue shift of this lambda max by roughly 40 nm to around 338 nm, presumably due to their donating effect and conjugation with the carbonyl oxygen. […] On the other hand, substitution at the 7-position had virtually no effect, which is to be expected due to the lack of direct conjugation with the carbonyl as well as the only modest electronic effects of alkyl, chlorine, and bromine. In general, the substituent effects are all fairly modest and result in fairly moderate changes in the extinction coefficient (although hydroxy substitution does definitely increase this value by roughly 50%).

[3] = UV–vis spectra determined in CH3CN
[4] = supplement sheet Tabular ε Data, slope of linear equation, unit not given, in L mol⁻¹ cm⁻¹
[5] = supplement sheet Tabular ε Data, unit not given

Compound	ε ([2]; UV–vis in CH3CN, at λmax) [L/mol/cm]	λmax [2, 3] [nm]	ε [2, 4]	λmax [2, 5]	dissolution for ε determination [2]	dissolution for ε determination ([2]; listed as 6OH7Me)	Hep G2 % inhibition [1] [%]	% Inhibition ([1]; Triplicate 1) [%]	% Inhibition ([1]; Triplicate 2) [%]	% Inhibition ([1]; Triplicate 3) [%]	Average % Inhibition [1] [%]
O=C([O-])C1=NN(c2ccc(S(=O)(=O)[O-])cc2)C(=O)C1N=Nc1ccc(S(=O)(=O)[O-])cc1.[Na+].[Na+].[Na+] (stereo not drawn) [tartrazine, reference compound]							6.81	14.72	3.80	1.93	
Cc1ccc(C=C2Oc3ccc(Br)cc3C2=O)cc1 [Compound 8]	15112	394	15112	394			59.35 ± 1.25	65.35	37.11	75.61	
Alizarin Y [reference compound]							-54.45	-50.46	-60.58	-52.30	
Cc1ccc(/C=C2\Oc3cccc(Cl)c3C2=O)cc1 [Compound 4]	17129	390	17129	390				24.72	7.19	13.49	15.13
Cc1ccc(C=C2Oc3cc(O)cc(C)c3C2=O)cc1 [Compound 16]	30445	338	30445	338			67.76 ± 6.06	77.36	54.17	71.74	
Cc1ccc(/C=C2\Oc3cc(C)c(C)cc3C2=O)cc1 [Compound 12]	19522	382	19522	382			24.95 ± 2.23	30.58	22.83	21.44	
Cc1ccc(/C=C2\Oc3cc(Cl)ccc3C2=O)cc1 [Compound 6]	23187	378	23187	378			25.07 ± 18.77	19.67	34.31	21.23	
Cc1ccc(/C=C2\Oc3cccc(O)c3C2=O)cc1 [Compound 15]	22664	390	22664	390			54.04 ± 4.65	62.56	40.66	58.91	
Cc1ccc(/C=C2\Oc3ccc(F)cc3C2=O)cc1 [Compound 2]	17188	394	17188	394			87.01 ± 0.56	90.35	81.77	88.89	
Cc1ccc(/C=C2\Oc3ccc(Cl)cc3C2=O)cc1 [Compound 5]	16551	394	16551	394			72.68 ± 2.77	72.62	63.25	82.18	
Cc1ccc(/C=C2\Oc3cc(O)ccc3C2=O)cc1 [Compound 14]	33050	338	33050	338			66.79 ± 3.04	60.23	53.07	87.07	

More lines, main results first:

ε ([2]; UV–vis in CH3CN, at λmax) [L/mol/cm]	λmax [2, 3] [nm]	ε [2, 4]	λmax [2, 5]	dissolution for ε determination [2]	dissolution for ε determination ([2]; listed as 6OH7Me)	Compound	Hep G2 % inhibition [1] [%]	% Inhibition ([1]; Triplicate 1) [%]	% Inhibition ([1]; Triplicate 2) [%]	% Inhibition ([1]; Triplicate 3) [%]	Average % Inhibition [1] [%]
15470	390	15470	390			Cc1ccc(/C=C2\Oc3ccc(C)cc3C2=O)cc1 [Compound 11]	80.88 ± 1.38	79.75	75.21	87.68	
18380	386	18380	386			Cc1ccc(/C=C2\Oc3c(C)cccc3C2=O)cc1 [Compound 13]	87.54 ± 1.61	89.87	82.08	90.66	
	336		336	will not dissolve completely	will not dissolve	Cc1ccc(/C=C2\Oc3c(ccc(O)c3C)C2=O)cc1 [Compound 17]	78.58 ± 7.11	77.81	74.71	83.21	
22250	390	22250	390			Cc1ccc(/C=C2\Oc3c(Br)cccc3C2=O)cc1 [Compound 10]		8.16	-1.79	11.18	5.85
20208	382	20208	382			Cc1ccc(C=C2Oc3ccccc3C2=O)cc1 [Compound 1]	86.27 ± 1.09	88.03	81.21	89.58	
22435	378	22435	378			Cc1ccc(/C=C2\Oc3cc(Br)ccc3C2=O)cc1 [Compound 9]	75.22 ± 3.84	77.38	72.50	75.78	
24252	370	24252	370			Cc1ccc(/C=C2\Oc3cc(F)ccc3C2=O)cc1 [Compound 3]	3.52 ± 3.39	5.64	13.37	-8.44	
17247	386	17247	386			Cc1ccc(/C=C2\Oc3c(Cl)cccc3C2=O)cc1 [Compound 7]	3.64 ± 3.64	7.01	-3.78	7.69	
